Test [1] deals with Trioza erythreae. The experiment in a line: Field spray test against psyllids on orange trees (Example A). The class given is in vivo. Particulars: 144 g a.i./ha, 240 SC + 0.2% RME; for Efficacy in % Abbott 7TNAA: 540 l water per ha, 7 days after the first treatment; for Efficacy in % Abbott 7TNAB / Efficacy in % Abbott 13TNAB: two applications at interval of one week; for Efficacy in % Abbott 7TNAB: 7 days after the last treatment; for Efficacy in % Abbott 13TNAB: 13 days after the last treatment. How it is done:
• Pest: Trioza erythreae • Plant: Orange
The compound of the formula (I) (240 SC) was tested at an application rate of 144 g a.i./ha+0.2% a.i. rapeseed oil methyl ester (RME) at 540 l water per ha in comparison with spirodiclofen application rate comparison.
Spraying was effected by means of a pneumatic knapsack sprayer.
The experiment was carried out using one tree per plot and three replications. In each case two applications were carried out at an interval of one week.
The activity against psyllids was determined by counting the number of live animals on 20 leaves per tree 7 days after the first treatment and 7 and 13 days after the last treatment. The efficacy was calculated with the aid of Abbott's formula.

The test system of test [2] is Paratrioza cockerelli. The experiment in a line: Field spray test against psyllids on tomato (Example B). The format is in vivo. Particulars: 72 g a.i./ha, 240 SC. How it is done:
• Pest: Paratrioza cockerelli • Plant: Tomato The compound of the formula (I) (240 SC) was tested at an application rate of 72 […] water application rate of 345 l ha in comparison with Leverage (48 g a.i./ha imidacloprid+33 […]). Spraying was effected by means of a manually operated knapsack sprayer. The experiment was carried out with 10-m^2 plots and three replications. In each case two applications were carried out at an interval of one week. The activity against […] determined by counting the number of live animals on 10 leaves 7 days after the first treatment and 7 and 14 days after the second treatment. The efficacy was calculated with the aid of Abbott's formula.

Test [3] concerns insects from the family Psyllidae. Nature of the test: Control of insects from the family Psyllidae, comparison with spirodiclofen. The class given is in vivo.
The conditions of test [4]: known from EP-A-0 528 156; cited from earlier work.
In test [5] the test system is insects from the family Aleyrodidae. Particulars: known from EP-A-0 528 156; cited from earlier work.
Test [6] relates to psyllids. The conditions noted are these: under certain conditions; timing of application very limited (De Maeyer et al.); cited from earlier work.

Here are results for two compounds from patent US9480253B2, “Use of 3-(2,4,6-Trimethylphenyl)-4-neopentylcarbonyloxy-5,5-tetramethylene-delta-3-dihydrofuran-2-one for controlling psyllids” (BAYER INTELLECTUAL PROPERTY GMBH, priority 2004, dated 2016).

Turning to `Cc1cc(C)c(C2=C(OC(=O)CC(C)(C)C)C3(CCCC3)OC2=O)c(C)c1` [Compound of the formula (I), 3-(2,4,6-Trimethylphenyl)-4-neopentylcarbonyloxy-5,5-tetramethylene-Δ^3-dihydrofuran-2-one], in test [1], the “Efficacy in % Abbott 7TNAA” value was 95 % Abbott, the “Efficacy in % Abbott 7TNAB” value amounted to 97.5 % Abbott and the “Efficacy in % Abbott 13TNAB” value was 95.2 % Abbott. Further, in test [2] (345 l water/ha, 7 days after the first treatment), the “Efficacy in % Abbott 7TNAA” value was 80.3 % Abbott. Also, the “Efficacy in % Abbott 7TNAB” value in test [2] (two applications at interval of one week, 7 days after the second treatment) turned out to be 84.8 % Abbott. Further, the “Efficacy in % Abbott 14TNAB” value in test [2] (two applications at interval of one week, 14 days after the second treatment) was 98.7 % Abbott. Besides, the “effectiveness in controlling insects from the family Psyllidae relative to spirodiclofen” value in test [3] is “considerably more effective than spirodiclofen”. The acaricidal activity entry in test [4] is reported as “acaricidal activity”. Besides, the “activity against insects from the family Aleyrodidae” value in test [5] was “active”.
For `CCC(C)(C)C(=O)OC1=C(c2ccc(Cl)cc2Cl)C(=O)OC12CCCCC2` [Spirodiclofen, reference compound], in test [1], the “Efficacy in % Abbott 7TNAA” value turned out to be 80.3 % Abbott, the “Efficacy in % Abbott 7TNAB” value is on record as 91.5 % Abbott and the “Efficacy in % Abbott 13TNAB” value stood at 88.1 % Abbott. In test [6], the “ovicidal activity against psyllids” value is reported as “ovicidal activity”.
